The record followed here is patent US12655142B2 (Merck Patent GmbH, priority 2019, dated 2026).

Test [1] addresses T1, GIST430/654 cell line expressing mutated constitutively active cKIT receptor tyrosine kinase (Δ560-576 deletion and V654A point mutation) (Homo sapiens, UniProt P10721, DEL560-576/V654A).
T1 construct: endogenous in cells; host or cells: GIST430/654 cells
Nature of the test: Cellular cKIT autophosphorylation (phospho-Y307-cKIT, Luminex bead assay) in GIST430/654 cells. Format: cell-based. The note with it: compounds 45 min, read-out: GIST 430/654 IC50. The gist of the method:
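GIST430 (Δ560-576) and imatinib-resistant GIST430/654 (plus V654A; grown with 100 nM imatinib) cells were plated in IMDM/15% FCS and treated next day with serially diluted compound for 45 min. Lysates were captured on anti-total-cKIT Luminex beads overnight at 4 °C and probed for phospho-Y307. IC50 was taken from percent of 0.3% DMSO control.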

The target of test [2] is T2, c-Kit(V654A) (Homo sapiens, UniProt P10721, V654A).
T2 construct: recombinant human c-Kit, amino acids 544-end containing the V654A mutation; GST (N)
The test is described as follows: c-Kit(V654A) assay (33P-ATP filter binding kinase assay). As to conditions: recombinant human c-Kit aa 544-end V654A, ATP 200 μM. In kind it is biochemical. The gist of the method:
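Radiometric filter-binding read-out: substrate 33P incorporation counted by scintillation after P30 filtermat washes in 75 mM phosphoric acid and methanol. Enzyme: N-GST recombinant human c-Kit aa 544-end carrying V654A.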

T1 sequence (P10721 with tags, fused parts or gaps DEL560-576/V654A): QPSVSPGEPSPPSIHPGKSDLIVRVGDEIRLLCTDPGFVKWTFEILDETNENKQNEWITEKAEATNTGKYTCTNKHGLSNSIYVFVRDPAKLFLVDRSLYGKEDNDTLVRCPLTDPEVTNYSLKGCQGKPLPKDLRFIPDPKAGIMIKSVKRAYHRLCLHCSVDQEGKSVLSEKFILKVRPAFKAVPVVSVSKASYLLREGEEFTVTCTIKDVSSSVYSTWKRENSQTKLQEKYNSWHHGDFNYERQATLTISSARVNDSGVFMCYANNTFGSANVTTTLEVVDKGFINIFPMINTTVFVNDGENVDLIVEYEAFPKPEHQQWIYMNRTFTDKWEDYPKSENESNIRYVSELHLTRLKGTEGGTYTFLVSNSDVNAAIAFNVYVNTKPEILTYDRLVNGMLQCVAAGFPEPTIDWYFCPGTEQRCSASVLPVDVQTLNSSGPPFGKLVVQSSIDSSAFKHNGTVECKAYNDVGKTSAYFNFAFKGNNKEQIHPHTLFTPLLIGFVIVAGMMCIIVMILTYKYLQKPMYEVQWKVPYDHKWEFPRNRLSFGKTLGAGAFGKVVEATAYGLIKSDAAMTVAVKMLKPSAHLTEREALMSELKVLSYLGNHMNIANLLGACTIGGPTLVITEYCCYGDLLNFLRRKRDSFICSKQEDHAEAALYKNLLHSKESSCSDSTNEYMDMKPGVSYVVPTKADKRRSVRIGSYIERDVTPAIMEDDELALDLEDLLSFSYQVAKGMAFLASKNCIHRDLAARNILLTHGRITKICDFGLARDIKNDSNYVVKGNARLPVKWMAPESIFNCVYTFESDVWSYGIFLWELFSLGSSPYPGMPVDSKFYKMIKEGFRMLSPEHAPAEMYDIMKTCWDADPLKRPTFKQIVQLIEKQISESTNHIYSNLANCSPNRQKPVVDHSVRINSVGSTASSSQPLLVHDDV
T2 sequence (P10721 544-976 V654A): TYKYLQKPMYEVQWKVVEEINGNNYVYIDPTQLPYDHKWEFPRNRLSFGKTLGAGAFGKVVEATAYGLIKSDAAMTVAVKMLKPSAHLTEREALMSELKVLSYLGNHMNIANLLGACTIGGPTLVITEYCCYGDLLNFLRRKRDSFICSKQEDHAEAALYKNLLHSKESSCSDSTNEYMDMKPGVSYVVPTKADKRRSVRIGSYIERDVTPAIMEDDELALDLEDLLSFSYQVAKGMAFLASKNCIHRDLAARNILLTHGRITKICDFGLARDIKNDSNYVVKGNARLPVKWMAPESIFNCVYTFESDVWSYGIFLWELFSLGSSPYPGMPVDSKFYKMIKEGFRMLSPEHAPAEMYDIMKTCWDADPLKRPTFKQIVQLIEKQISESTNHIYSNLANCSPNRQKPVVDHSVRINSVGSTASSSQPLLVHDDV

Turning to `Cn1cc(-c2ccc(CNc3cc(-c4cnc5cc(OCCN6CC7CC7C6)ccn45)ncn3)cc2)cn1` (stereo not shown) [A127, (6-{7-[2-(3-aza-bicyclo[3.1.0]hex-3-yl)-ethoxy]-imidazo[1,2-a]pyridin-3-yl}-pyrimidin-4-yl)-[4-(1-methyl-1H-pyrazol-4-yl)-benzyl]-amine], the figures for the IC50 in test [1] and in test [2] were 0.1 µM and 0.0067 µM, respectively.
Taken in the same sequence, the figures for `Cn1cc(-c2ccc(CNc3cc(-c4cnc5cc(OCc6ccccc6)ccn45)ncn3)cc2)cn1` [A72, 6-[7-(benzyloxy)imidazo[1,2-a]pyridin-3-yl]-N-{[4-(1-methyl-1H-pyrazol-4-yl)phenyl]methyl}pyrimidin-4-amine] were 0.54 µM and 0.072 µM.
The matching figures for `COc1ccn2c(-c3cc(NCc4ccc(-c5cnc(C)nc5)cc4)ncn3)cnc2c1` [A41, 6-{7-methoxyimidazo[1,2-a]pyridin-3-yl}-N-{[4-(2-methylpyrimidin-5-yl)phenyl]methyl}pyrimidin-4-amine]: 1.6 µM and 0.046 µM.
The matching figures for `Cn1cc(-c2ccc(CNc3cc(-c4cnc5cc(OCCC6CCN(C7COC7)C6)ccn45)ncn3)cc2)cn1` (stereo not shown) [A123, [4-(1-methyl-1H-pyrazol-4-yl)-benzyl]-(6-{7-[2-(1-oxetan-3-yl-pyrrolidin-3-yl)-ethoxy]-imidazo[1,2-a]pyridin-3-yl}-pyrimidin-4-yl)-amine]: 0.056 µM and 0.0058 µM.
On to `CN(C)CCCOc1ccn2c(-c3cc(NCc4ccc(-c5cnn(C)c5)cc4)ncn3)cnc2c1` [A132, {6-[7-(3-dimethylamino-propoxy)-imidazo[1,2-a]pyridin-3-yl]-pyrimidin-4-yl}-[4-(1-methyl-1H-pyrazol-4-yl)-benzyl]-amine], for which the figures for the IC50 in test [1] and in test [2] were 0.043 µM and 0.005 µM, respectively.
Taken in the same sequence, the figures for `COCCN1CCC(COc2ccn3c(-c4cc(NCc5ccc(-c6cnn(C)n6)cc5)ncn4)cnc3c2)CC1` [A191, (6-{7-[1-(2-methoxy-ethyl)-piperidin-4-ylmethoxy]-imidazo[1,2-a]pyridin-3-yl}-pyrimidin-4-yl)-[4-(2-methyl-2H-[1,2,3]triazol-4-yl)-benzyl]-amine] were 0.039 µM and 0.0022 µM.
On to `Cn1ncc(-c2ccc(CNc3cc(-c4cnc5cc(OCc6cccnc6)ccn45)ncn3)cc2)n1` [A112, [4-(2-methyl-2H-[1,2,3]triazol-4-yl)-benzyl]-{6-[7-(pyridin-3-ylmethoxy)-imidazo[1,2-a]pyridin-3-yl]-pyrimidin-4-yl}-amine], for which the IC50 in test [1] is 0.26 µM; in test [2] it was 0.04 µM.
The matching figures for `Cn1cc(-c2ccc(CNc3cc(-c4cnc5cc(N6CCOCC6)ccn45)ncn3)cc2)cn1` [A180, [4-(1-methyl-1H-pyrazol-4-yl)-benzyl]-[6-(7-morpholin-4-yl-imidazo[1,2-a]pyridin-3-yl)-pyrimidin-4-yl]-amine]: 0.077 µM and 0.0078 µM.
The matching figures for `Cn1ncc(-c2ccc(CNc3cc(-c4cnc5cc(OCCN6CCC(F)(F)C6)ccn45)ncn3)cc2)n1` [A105, (6-{7-[2-(3,3-difluoro-pyrrolidin-1-yl)-ethoxy]-imidazo[1,2-a]pyridin-3-yl}-pyrimidin-4-yl)-[4-(2-methyl-2H-[1,2,3]triazol-4-yl)-benzyl]-amine]: 0.12 µM and 0.0095 µM.
Taken in the same sequence, the figures for `CN1CCC(CCOc2ccn3c(-c4cc(NCc5ccc(-c6cnn(C)c6)cc5)ncn4)cnc3c2)C1` (stereo not shown) [A115, [4-(1-methyl-1H-pyrazol-4-yl)-benzyl]-(6-{7-[2-(1-methyl-pyrrolidin-3-yl)-ethoxy]-imidazo[1,2-a]pyridin-3-yl}-pyrimidin-4-yl)-amine] were 0.049 µM and 0.0037 µM.
As for `Cn1cc(-c2ccc(CNc3cc(-c4cnc5cc(OCCN6CC(F)(F)C6)ccn45)ncn3)cc2)cn1` [A139, 6-{7-[2-(3,3-difluoroazetidin-1-yl)ethoxy]imidazo[1,2-a]pyridin-3-yl}-N-{[4-(1-methyl-1H-pyrazol-4-yl)phenyl]methyl}pyrimidin-4-amine], the IC50 in test [1] worked out at 0.16 µM; in test [2], 0.0096 µM.
For `Cn1cc(-c2ccc(CNc3cc(-c4cnc5cc(C(F)(F)F)ccn45)ncn3)cc2)cn1` [A10, N-{[4-(1-methyl-1H-pyrazol-4-yl)phenyl]methyl}-6-[7-(trifluoromethyl)imidazo[1,2-a]pyridin-3-yl]pyrimidin-4-amine], the IC50 came to 1 µM in test [1] and 0.013 µM in test [2].
As for `Cn1ncc(-c2ccc(CNc3cc(-c4cnc5cc(OCCC6CCN(C7COC7)C6)ccn45)ncn3)cc2)n1` (stereo not shown) [A119, [4-(2-methyl-2H-[1,2,3]triazol-4-yl)-benzyl]-(6-{7-[2-(1-oxetan-3-yl-pyrrolidin-3-yl)-ethoxy]-imidazo[1,2-a]pyridin-3-yl}-pyrimidin-4-yl)-amine], the IC50 in test [1] came to 0.062 µM; in test [2], 0.0034 µM.
For the compound `CN1CCC(CCOc2ccn3c(-c4cc(NCc5ccc(-c6cnn(C)n6)cc5)ncn4)cnc3c2)C1` (stereo not shown) [A116, (6-{7-[2-(1-methyl-pyrrolidin-3-yl)-ethoxy]-imidazo[1,2-a]pyridin-3-yl}-pyrimidin-4-yl)-[4-(2-methyl-2H-[1,2,3]triazol-4-yl)-benzyl]-amine], the IC50 came to 0.048 µM in test [1] and 0.0016 µM in test [2].
As to `COc1ccn2c(-c3cc(NCc4ccc(-c5cnc(C)o5)cc4)ncn3)cnc2c1` [A48, [6-(7-methoxy-imidazo[1,2-a]pyridin-3-yl)-pyrimidin-4-yl]-[4-(2-methyl-oxazol-5-yl)-benzyl]-amine], the IC50 is 0.47 µM in test [1] and 0.025 µM in test [2].
The matching figures for `Cn1cc(-c2ccc(CNc3cc(-c4cnc5cc(OCCCN6CCOCC6=O)ccn45)ncn3)cc2)cn1` [A88, 4-[3-({3-[6-({[4-(1-methyl-1H-pyrazol-4-yl)phenyl]methyl}amino)pyrimidin-4-yl]imidazo[1,2-a]pyridin-7-yl}oxy)propyl]morpholin-3-one]: 0.089 µM and 0.012 µM.
As for `Cn1cc(-c2ccc(CNc3cc(-c4cnc5cc(OCC(C)(C)N6CCOCC6)ccn45)ncn3)cc2)cn1` [A107, {6-[7-(2-methyl-2-morpholin-4-yl-propoxy)-imidazo[1,2-a]pyridin-3-yl]-pyrimidin-4-yl}-[4-(1-methyl-1H-pyrazol-4-yl)-benzyl]-amine], the IC50 in test [1] came to 0.12 µM; in test [2] it was 0.013 µM.
Taken in the same sequence, the figures for `COCCN1CCC(COc2ccn3c(-c4cc(NCc5ccc(-c6cnn(C)c6)cc5)ncn4)cnc3c2)CC1` [A190] were 0.17 µM and 0.0038 µM.
Taken in the same sequence, the figures for `Cn1cc(-c2ccc(CNc3cc(-c4cnc5cc(OCCCN6CCCCC6)ccn45)ncn3)cc2)cn1` [A237, N-{[4-(1-methyl-1H-pyrazol-4-yl)phenyl]methyl}-6-{7-[3-(piperidin-1-yl)propoxy]imidazo[1,2-a]pyridin-3-yl}pyrimidin-4-amine] were 0.035 µM and 0.0043 µM.
Taken in the same sequence, the figures for `Cn1cc(-c2ccc(CNc3cc(-c4cnc5cc(OCCCCN6CCC6)ccn45)ncn3)cc2)cn1` [A225, {6-[7-(4-azetidin-1-yl-butoxy)-imidazo[1,2-a]pyridin-3-yl]-pyrimidin-4-yl}-[4-(1-methyl-1H-pyrazol-4-yl)-benzyl]-am amine] were 0.057 µM and 0.015 µM.
Turning to `c1cn(-c2ccc(CNc3cc(-c4cnc5cc(OCCN6CCOCC6)ccn45)ncn3)cc2)nn1` [A68, {6-[7-(2-morpholin-4-yl-ethoxy)-imidazo[1,2-a]pyridin-3-yl]-pyrimidin-4-yl}-(4-[1,2,3]triazol-1-yl-benzyl)-amine], the IC50 in test [1] turned out to be 0.063 µM; in test [2], 0.0057 µM.
On to `COc1ccn2c(-c3cc(NCc4ccc(-c5cnn(C6COC6)c5)cc4)ncn3)cnc2c1` [A33, 6-{7-methoxyimidazo[1,2-a]pyridin-3-yl}-N-({4-[1-(oxetan-3-yl)-1H-pyrazol-4-yl]phenyl}methyl)pyrimidin-4-amine], for which the figures for the IC50 in test [1] and in test [2] were 0.12 µM and 0.016 µM, respectively.
The matching figures for `Cn1cc(-c2ccc(CNc3cc(-c4cnc5cc(OCC6CC6)ccn45)ncn3)cc2)cn1` [A58, 6-[7-(cyclopropylmethoxy)imidazo[1,2-a]pyridin-3-yl]-N-{[4-(1-methyl-1H-pyrazol-4-yl)phenyl]methyl}pyrimidin-4-amine]: 0.15 µM and 0.019 µM.
The matching figures for `COc1cc2ncc(-c3cc(NCc4ccc(-c5cnn(C)c5)cc4)ncn3)n2cc1F` [A69, [6-(6-fluoro-7-methoxy-imidazo[1,2-a]pyridin-3-yl)-pyrimidin-4-yl]-[4-(1-methyl-1H-pyrazol-4-yl)-benzyl]-amine]: 0.24 µM and 0.013 µM.
The matching figures for `Cn1cc(-c2ccc(CNc3cc(-c4cnc5cc(OCCN6CCCC(F)(F)C6)ccn45)ncn3)cc2)cn1` [A136, 6-{7-[2-(3,3-difluoropiperidin-1-yl)ethoxy]imidazo[1,2-a]pyridin-3-yl}-N-{[4-(1-methyl-1H-pyrazol-4-yl)phenyl]methyl}pyrimidin-4-amine]: 0.15 µM and 0.01 µM.
`CN(C)CCCOc1ccn2c(-c3cc(NCc4ccc(-c5cnn(C)n5)cc4)ncn3)cnc2c1` [A135, {6-[7-(3-dimethylamino-propoxy)-imidazo[1,2-a]pyridin-3-yl]-pyrimidin-4-yl}-[4-(2-methyl-2H-[1,2,3]triazol-4-yl)-benzyl]-amine]: the IC50 in test [1] was determined as 0.21 µM; in test [2], 0.002 µM.
